Experimental findings from publication PMC9308932, “Human liver microsomes study on the inhibitory effect of plantainoside D on the activity of cytochrome P450 activity” (BMC Complementary Medicine and Therapies, 2022) are described below.

The term pKi denotes −log10 of the Ki, conventionally taken in molar units. High values mean a low Ki, low ones a high Ki. As usually defined, the pIC50 is −log10 of the IC50, conventionally taken in molar units. High values mean a low IC50, low ones a high IC50. As a reminder, the kinact is the rate constant of inactivation at saturating inhibitor.

What all share (assay type): in vitro ADME
Series [1] concerns the target T1, CYP1A2 (Homo sapiens, UniProt P05177).
T1 construct: Pooled human liver microsomes were obtained from BD Biosciences Discovery Labware; tissue BD Biosciences Discovery Labware; host or cells: pooled human liver microsomes
T1 sequence (P05177 1-516): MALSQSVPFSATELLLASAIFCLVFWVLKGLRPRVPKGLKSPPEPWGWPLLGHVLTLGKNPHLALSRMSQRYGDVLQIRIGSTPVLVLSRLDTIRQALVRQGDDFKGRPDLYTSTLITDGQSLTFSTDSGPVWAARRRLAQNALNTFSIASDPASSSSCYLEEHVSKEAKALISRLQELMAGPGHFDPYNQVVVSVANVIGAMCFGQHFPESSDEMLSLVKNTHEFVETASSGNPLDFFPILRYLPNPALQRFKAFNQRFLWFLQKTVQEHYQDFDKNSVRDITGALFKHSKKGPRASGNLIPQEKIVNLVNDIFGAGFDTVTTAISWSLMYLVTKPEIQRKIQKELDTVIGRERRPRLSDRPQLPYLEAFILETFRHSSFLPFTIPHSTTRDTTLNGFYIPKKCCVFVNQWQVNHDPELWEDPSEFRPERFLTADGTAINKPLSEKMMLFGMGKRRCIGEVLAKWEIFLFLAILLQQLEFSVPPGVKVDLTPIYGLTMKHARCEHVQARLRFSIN
Description: Concentration-dependent inhibition of CYP1A2 (phenacetin O-deethylation) in human liver microsomes. How it is done:
(§1) The activity of P450s was evaluated by corresponding metabolites using HPLC with Agilent 1260 Series Rapid Resolution HPLC. The reaction system was prepared with the following compositions: HLMs with certain protein concentrations, specific substrates of different isoenzymes, PBS buffer solution, plantainoside D or specific inhibitors, and an NADPH generating system as previously reported. Besides dextromethorphan and quinidine were dissolved in water, other substrated, inhibitors, and plantainoside D were dissolved in methanol with a final concentration of 1% (v/v). Before initiating the reaction, there was a preincubation of 3 min followed by the addition of the NADPH-generating system.
(§2) The effect of plantainoside D was primarily evaluated with the concentration of 0, 2.5, 5, 10, 25, 50, and 100 μM and the values of IC50 was evaluated. Furthermore, the inhibition model of P450 isoenzymes was estimated in the presence of various concentrations of corresponding substrates and fitting with Lineweaver–Burk and Dixon plots, and the inhibition constant was calculated by the following equations:
(§3) v=VmaxS/Km1+I/Ki+S for competitive inhibition;
(§4) v=(VmaxS)/[Km+S(1+I/KiKI)] for non-competitive inhibition.
(§5) where I is the concentration of plantainoside D, Ki is the inhibition constant, S is the concentration of the substrate, and Km is the substrate concentration at half the maximum velocity (Vmax) of the reaction.
(In general: Liver microsomes are vesicles of endoplasmic reticulum, rich in cytochrome P450 enzymes.)

Series [2] concerns the target T2, CYP2D6 (Homo sapiens, UniProt P10635).
T2 construct: Pooled human liver microsomes were obtained from BD Biosciences Discovery Labware; tissue BD Biosciences Discovery Labware; host or cells: pooled human liver microsomes
Briefly: Concentration-dependent inhibition of CYP2D6 (dextromethorphan O-demethylation) in human liver microsomes. As for the experimental part:
as §1, §2, §3, §4, §5

Series [3] has as its target T3, CYP3A (Homo sapiens, UniProt P08684). Briefly: Concentration-dependent inhibition of CYP3A (testosterone 6β-hydroxylation) in human liver microsomes. As for the experimental part: as §1, §2, §3, §4, §5
In the next series the target is T4, CYP2A6 (Homo sapiens, UniProt P11509).
T4 construct: Pooled human liver microsomes were obtained from BD Biosciences Discovery Labware; tissue BD Biosciences Discovery Labware; host or cells: pooled human liver microsomes
T4 sequence (P11509 1-494): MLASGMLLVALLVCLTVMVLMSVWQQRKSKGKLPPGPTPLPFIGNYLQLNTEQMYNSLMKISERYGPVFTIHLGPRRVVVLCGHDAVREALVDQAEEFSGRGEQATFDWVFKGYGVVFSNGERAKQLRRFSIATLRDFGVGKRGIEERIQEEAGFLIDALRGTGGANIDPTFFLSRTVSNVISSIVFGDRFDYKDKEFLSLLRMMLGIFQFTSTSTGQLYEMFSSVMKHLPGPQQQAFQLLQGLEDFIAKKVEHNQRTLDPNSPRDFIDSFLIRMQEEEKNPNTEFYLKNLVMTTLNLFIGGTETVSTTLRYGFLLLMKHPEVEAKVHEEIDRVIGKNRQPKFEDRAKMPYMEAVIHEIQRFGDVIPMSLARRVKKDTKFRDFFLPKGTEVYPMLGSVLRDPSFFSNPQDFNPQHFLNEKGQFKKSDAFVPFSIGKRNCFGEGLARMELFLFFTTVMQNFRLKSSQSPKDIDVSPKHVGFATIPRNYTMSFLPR
Description: CYP2A6 activity (coumarin 7-hydroxylation) in human liver microsomes. Particulars: 0-100 μM plantainoside D. How it is done:
as §1, with “system. [table] [table] […] Furthermore, the inhibition model of P450 isoenzymes was estimated in the presence of various concentrations of corresponding substrates and fitting with Lineweaver–Burk and Dixon plots, and the inhibition constant was calculated by the following equations: […]” for “system.”

Another series addresses T5, CYP2B6 (Homo sapiens, UniProt P20813).
T5 construct: Pooled human liver microsomes were obtained from BD Biosciences Discovery Labware; tissue BD Biosciences Discovery Labware; host or cells: pooled human liver microsomes
T5 sequence (P20813 1-491): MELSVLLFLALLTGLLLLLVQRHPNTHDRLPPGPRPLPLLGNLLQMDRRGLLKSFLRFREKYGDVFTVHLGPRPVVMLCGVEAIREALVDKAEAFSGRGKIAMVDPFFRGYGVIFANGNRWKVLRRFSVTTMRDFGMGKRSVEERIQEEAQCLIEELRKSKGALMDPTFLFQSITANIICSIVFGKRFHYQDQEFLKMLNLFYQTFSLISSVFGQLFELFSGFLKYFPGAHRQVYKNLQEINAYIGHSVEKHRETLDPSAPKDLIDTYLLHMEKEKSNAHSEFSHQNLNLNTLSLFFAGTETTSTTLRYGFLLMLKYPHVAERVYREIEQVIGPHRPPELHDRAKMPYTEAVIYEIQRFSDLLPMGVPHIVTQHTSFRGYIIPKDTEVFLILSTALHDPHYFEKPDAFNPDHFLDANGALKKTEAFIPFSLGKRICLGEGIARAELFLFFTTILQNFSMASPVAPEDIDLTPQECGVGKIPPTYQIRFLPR
Briefly: CYP2B6 activity (bupropion hydroxylation) in human liver microsomes. Particulars: 0-100 μM plantainoside D. As for the experimental part: as §1, with “system. [table] [table] […] Furthermore, the inhibition model of P450 isoenzymes was estimated in the presence of various concentrations of corresponding substrates and fitting with Lineweaver–Burk and Dixon plots, and the inhibition constant was calculated by the following equations: […]” for “system.”

A further series deals with T6, CYP2C8 (Homo sapiens, UniProt P10632).
T6 construct: Pooled human liver microsomes were obtained from BD Biosciences Discovery Labware; tissue BD Biosciences Discovery Labware; host or cells: pooled human liver microsomes
T6 sequence (P10632 1-490): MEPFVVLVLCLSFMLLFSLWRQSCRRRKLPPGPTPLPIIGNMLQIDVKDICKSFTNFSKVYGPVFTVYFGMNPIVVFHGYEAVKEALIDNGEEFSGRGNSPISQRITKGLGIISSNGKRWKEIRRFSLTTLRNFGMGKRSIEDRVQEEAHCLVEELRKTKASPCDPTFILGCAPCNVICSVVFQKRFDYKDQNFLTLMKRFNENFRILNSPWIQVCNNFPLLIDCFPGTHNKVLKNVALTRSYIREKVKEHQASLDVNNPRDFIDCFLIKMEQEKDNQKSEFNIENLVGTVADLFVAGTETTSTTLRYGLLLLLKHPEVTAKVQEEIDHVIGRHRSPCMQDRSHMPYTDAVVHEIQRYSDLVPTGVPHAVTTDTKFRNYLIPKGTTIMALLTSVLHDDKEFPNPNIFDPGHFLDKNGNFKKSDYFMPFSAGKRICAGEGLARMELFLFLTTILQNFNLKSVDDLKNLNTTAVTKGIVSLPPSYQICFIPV
Description: CYP2C8 activity (paclitaxel 6α-hydroxylation) in human liver microsomes. Particulars: 0-100 μM plantainoside D. How it is done: as §1, with “system. [table] [table] […] Furthermore, the inhibition model of P450 isoenzymes was estimated in the presence of various concentrations of corresponding substrates and fitting with Lineweaver–Burk and Dixon plots, and the inhibition constant was calculated by the following equations: […]” for “system.”

For another series, the target named is T7, CYP2C9 (Homo sapiens, UniProt P11712).
T7 construct: Pooled human liver microsomes were obtained from BD Biosciences Discovery Labware; tissue BD Biosciences Discovery Labware; host or cells: pooled human liver microsomes
T7 sequence (P11712 whole entry): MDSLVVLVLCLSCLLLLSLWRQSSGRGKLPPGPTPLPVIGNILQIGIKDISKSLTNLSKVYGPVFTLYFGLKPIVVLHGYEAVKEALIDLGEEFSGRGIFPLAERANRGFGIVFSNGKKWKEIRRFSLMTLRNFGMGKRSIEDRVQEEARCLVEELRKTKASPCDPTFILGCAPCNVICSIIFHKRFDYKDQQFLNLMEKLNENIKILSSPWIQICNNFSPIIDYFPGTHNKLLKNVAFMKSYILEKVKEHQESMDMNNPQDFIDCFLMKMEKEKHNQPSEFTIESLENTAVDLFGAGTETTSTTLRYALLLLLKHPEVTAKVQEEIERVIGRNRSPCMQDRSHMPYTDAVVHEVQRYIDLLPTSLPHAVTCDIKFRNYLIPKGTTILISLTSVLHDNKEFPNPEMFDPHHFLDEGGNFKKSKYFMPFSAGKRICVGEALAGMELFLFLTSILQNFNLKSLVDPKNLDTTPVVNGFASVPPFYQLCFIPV
Briefly: CYP2C9 activity (diclofenac 4'-hydroxylation) in human liver microsomes. Particulars: 0-100 μM plantainoside D. How it is done: as §1, with “system. [table] [table] […] Furthermore, the inhibition model of P450 isoenzymes was estimated in the presence of various concentrations of corresponding substrates and fitting with Lineweaver–Burk and Dixon plots, and the inhibition constant was calculated by the following equations: […]” for “system.”

The next series addresses T8, CYP2C19 (Homo sapiens, UniProt P33261).
T8 construct: Pooled human liver microsomes were obtained from BD Biosciences Discovery Labware; tissue BD Biosciences Discovery Labware; host or cells: pooled human liver microsomes
Description: CYP2C19 activity (S-mephenytoin 4-hydroxylation) in human liver microsomes. Particulars: 0-100 μM plantainoside D. As for the experimental part: as §1, with “system. [table] [table] […] Furthermore, the inhibition model of P450 isoenzymes was estimated in the presence of various concentrations of corresponding substrates and fitting with Lineweaver–Burk and Dixon plots, and the inhibition constant was calculated by the following equations: […]” for “system.”

Another series addresses T9, CYP2E1 (Homo sapiens, UniProt P05181).
T9 construct: Pooled human liver microsomes were obtained from BD Biosciences Discovery Labware; tissue BD Biosciences Discovery Labware; host or cells: pooled human liver microsomes
Briefly: CYP2E1 activity (chlorzoxazone 6-hydroxylation) in human liver microsomes. Particulars: 0-100 μM plantainoside D. How it is done:
as §1, with “system. [table] [table] […] Furthermore, the inhibition model of P450 isoenzymes was estimated in the presence of various concentrations of corresponding substrates and fitting with Lineweaver–Burk and Dixon plots, and the inhibition constant was calculated by the following equations: […]” for “system.”

In series [4] the target is T3, CYP3A. Briefly: Time-dependent inhibition of CYP3A in human liver microsomes. How it is done: A total of 1 mg/mL HLMs were firstly incubated with 20 μM plantainoside D and the NADPH-generating system for 30 min. Then, incubation with 20 μL aliquot was carried out for 0, 5, 10, 15, and 30 min in the presence of substrates concentration close to Km. Additionally, the values of KI and Kinact were evaluated in the presence of substrates approximate to fourfold Km according to the equation: 1/Kobs=KI/Kinact×1/[I]+1/Kinact .

The target in series [5] is T1, CYP1A2. Description: Time-dependent inhibition of CYP1A2 in human liver microsomes. Particulars: 20 μM plantainoside D; incubation 0-30 min; 1 mg/mL HLMs. As for the experimental part: (§6) A total of 1 mg/mL HLMs were firstly incubated with 20 μM plantainoside D and the NADPH-generating system for 30 min. Then, incubation with 20 μL aliquot was carried out for 0, 5, 10, 15, and 30 min in the presence of substrates concentration close to Km.

The target in series [6] is T2, CYP2D6. Briefly: Time-dependent inhibition of CYP2D6 in human liver microsomes. Particulars: 20 μM plantainoside D; incubation 0-30 min; 1 mg/mL HLMs. How it is done: as §6
[7] abbreviates: Lineweaver-Burk plot, constant Vmax.
[8] abbreviates: competitive model, Dixon plot, human liver microsomes.
[9] abbreviates: human, human liver microsomes, probe testosterone (6β-hydroxylation).

SMILES strings stand for the structures. pIC50, pKi: −log10 of the molar value.

T3 sequence (P08684 2-503): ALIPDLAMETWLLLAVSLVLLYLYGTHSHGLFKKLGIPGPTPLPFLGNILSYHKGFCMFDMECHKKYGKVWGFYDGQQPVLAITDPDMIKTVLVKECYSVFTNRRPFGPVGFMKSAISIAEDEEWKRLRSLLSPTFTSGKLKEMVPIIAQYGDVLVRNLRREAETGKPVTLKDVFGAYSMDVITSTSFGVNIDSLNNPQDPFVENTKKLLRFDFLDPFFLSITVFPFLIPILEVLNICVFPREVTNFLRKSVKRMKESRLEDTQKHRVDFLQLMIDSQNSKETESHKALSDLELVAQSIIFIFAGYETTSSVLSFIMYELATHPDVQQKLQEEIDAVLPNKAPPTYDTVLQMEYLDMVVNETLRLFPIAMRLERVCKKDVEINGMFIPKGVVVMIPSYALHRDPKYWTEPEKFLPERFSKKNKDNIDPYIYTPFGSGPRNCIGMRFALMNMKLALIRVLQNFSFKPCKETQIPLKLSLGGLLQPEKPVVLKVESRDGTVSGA
T2 sequence (P10635 whole entry): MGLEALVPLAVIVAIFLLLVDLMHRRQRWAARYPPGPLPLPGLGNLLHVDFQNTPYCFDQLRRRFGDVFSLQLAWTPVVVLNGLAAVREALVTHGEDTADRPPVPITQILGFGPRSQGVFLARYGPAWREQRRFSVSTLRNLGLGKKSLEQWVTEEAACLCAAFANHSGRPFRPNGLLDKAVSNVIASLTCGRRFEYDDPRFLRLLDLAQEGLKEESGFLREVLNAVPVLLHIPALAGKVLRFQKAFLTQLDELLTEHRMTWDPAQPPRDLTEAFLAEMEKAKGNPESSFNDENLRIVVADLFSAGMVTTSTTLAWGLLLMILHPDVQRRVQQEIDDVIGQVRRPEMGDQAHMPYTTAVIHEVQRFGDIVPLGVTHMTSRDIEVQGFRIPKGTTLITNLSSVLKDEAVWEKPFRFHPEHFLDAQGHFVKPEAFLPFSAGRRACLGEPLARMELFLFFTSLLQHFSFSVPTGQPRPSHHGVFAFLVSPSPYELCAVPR
T8 sequence (P33261 whole entry): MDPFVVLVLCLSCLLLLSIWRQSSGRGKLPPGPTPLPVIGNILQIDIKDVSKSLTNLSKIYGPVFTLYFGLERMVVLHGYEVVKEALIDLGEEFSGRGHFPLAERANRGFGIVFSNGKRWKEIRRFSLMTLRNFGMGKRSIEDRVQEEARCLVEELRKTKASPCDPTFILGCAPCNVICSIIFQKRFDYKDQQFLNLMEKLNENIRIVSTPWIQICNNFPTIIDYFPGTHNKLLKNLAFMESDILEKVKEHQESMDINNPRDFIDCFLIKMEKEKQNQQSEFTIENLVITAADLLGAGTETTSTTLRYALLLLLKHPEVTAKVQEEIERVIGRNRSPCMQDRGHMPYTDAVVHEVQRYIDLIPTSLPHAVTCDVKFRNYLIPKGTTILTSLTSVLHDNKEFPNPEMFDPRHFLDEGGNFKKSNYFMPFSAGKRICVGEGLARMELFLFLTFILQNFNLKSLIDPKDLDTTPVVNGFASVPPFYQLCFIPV
T9 sequence (P05181 whole entry): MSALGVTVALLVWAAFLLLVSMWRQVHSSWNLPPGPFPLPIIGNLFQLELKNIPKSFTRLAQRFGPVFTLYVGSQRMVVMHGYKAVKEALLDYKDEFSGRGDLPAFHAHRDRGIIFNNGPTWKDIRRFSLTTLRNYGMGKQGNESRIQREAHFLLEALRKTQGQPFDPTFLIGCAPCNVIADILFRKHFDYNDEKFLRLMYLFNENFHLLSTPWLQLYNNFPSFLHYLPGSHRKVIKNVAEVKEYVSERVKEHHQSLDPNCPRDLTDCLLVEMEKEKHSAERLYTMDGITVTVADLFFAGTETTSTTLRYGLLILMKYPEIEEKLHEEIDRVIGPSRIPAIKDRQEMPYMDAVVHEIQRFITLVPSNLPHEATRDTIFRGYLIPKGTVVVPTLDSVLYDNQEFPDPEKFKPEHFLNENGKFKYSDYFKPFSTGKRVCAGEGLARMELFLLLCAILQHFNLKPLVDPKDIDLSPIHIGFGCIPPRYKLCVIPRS

As to `O=C(/C=C/c1ccc(O)c(O)c1)OC[C@H]1O[C@@H](OCCc2ccc(O)c(O)c2)[C@H](O)[C@@H](O[C@@H]2O[C@H](CO)[C@@H](O)[C@H](O)[C@H]2O)[C@@H]1O` [plantainoside D, Plantainoside D], the “Inhibition model of CYP1A2” value at CYP1A2 [1] (setting [7]) is given as “competitive”. In addition, the pKi on CYP1A2 [1] (setting [8]) is 5.20; at CYP2D6 [2] (setting [8]), 5.34; at CYP3A [3] (setting [9]) it was 5.15. Also, the pIC50 against CYP1A2 [1] (human liver microsomes, 0-100 μM plantainoside D, phenacetin substrate) was 4.89; at CYP2D6 [2] (human liver microsomes, 0-100 μM plantainoside D, dextromethorphan substrate), 5.08; on CYP3A [3] (setting [9]), 4.83. On CYP2D6 [2] (setting [7]), the “Inhibition model of CYP2D6” value was “competitive”. Further, the “Inhibition model of CYP3A” value at CYP3A [3] (Lineweaver-Burk plot, constant Km) is recorded as “non-competitive”. For the same compound, the “Effect on CYP2A6 activity” value at CYP2A6 is given as “no changes”. For the same compound, the “Effect on CYP2B6 activity” value on CYP2B6 is on record as “no changes”. Further, the “Effect on CYP2C8 activity” value on CYP2C8 was “no changes”. On CYP2C9, the “Effect on CYP2C9 activity” value is given as “no changes”. In addition, the “Effect on CYP2C19 activity” value on CYP2C19 is “no changes”. Also, the “Effect on CYP2E1 activity” value on CYP2E1 was “no changes”. Also, at CYP3A [4] (20 μM plantainoside D, incubation 0-30 min, 1 mg/mL HLMs), the “Time dependence of CYP3A inhibition” value is “enhanced with the increasing incubation time”. For the same compound, the kinact at CYP3A [4] (human liver microsomes, 0, 2, 5, 10, 20, 50 μM plantainoside D, substrate about fourfold Km) is 0.00065 s⁻¹. The “Time dependence of CYP1A2 inhibition” value at CYP1A2 [5] is given as “no significant changes with time”. Further, the “Time dependence of CYP2D6 inhibition” value on CYP2D6 [6] was “no significant changes with time”.
